{"source": "patent US20240423949A1", "about": "“APPLICATION OF SALVIANOLIC ACID B IN PREPARING ANTI-ROTAVIRUS PREPARATION” (GUANGDONG MEDICAL UNIVERSITY, priority 2023, published 2024)", "key": {"Wa strain rotavirus [1]": {"system": "Wa strain rotavirus", "assay": "Direct inhibitory effect on RV (drug pre-mixed with virus, MA104 cells, MTT assay)", "type": "cell-based", "description": "Different concentrations of salvianolic acid B solution with 50TCID50 virus solution (virus with 20 μg/mL trypsin at 37° C. for 30 min), DMEM with 50TCID50 virus solution, ribavirin with 50TCID50 virus solution were mixed in equal volumes and incubated in a 5% CO2 incubator at 37° C. for 2 hours. The cells were rinsed twice with PBS and added to a 96-well culture plate of MA104 cells grown to monolayers, and for the normal cell control group, an equal volume of DMEM was added. After incubated at 37° C. and 5% CO2 for 2 h, the mixed solution was aspirated and the maintenance solution was added, with 100 μL per well. The 96-well plate was placed in a 5% CO2 incubator at 37° C. for continuous observation for 72 h and then detected by the MTT assay. A 1/10 volume of MTT solution was added to each well. After incubated for 3-4 h in the incubator, the 96-well plate was removed, the culture solution in the well was carefully aspirated, and 150 µL of DMSO was added to each well. The plate was shaken at a low speed for 10 min on a shaker to fully dissolve the crystal, and the absorbance was detected and recorded at a wavelength of 490 nm. The drug-to-virus inhibition rates were calculated and the experiment was repeated 3 times.\nVirus inhibition rate (%)=(average A value of drug group−average A value of virus control group)/(average A value of normal cell control group−average A value of virus control group)×100%"}, "Wa strain rotavirus [2]": {"system": "Wa strain rotavirus", "assay": "Anti-RV biosynthesis effect in MA104 cells (drug after virus, MTT assay)", "type": "cell-based", "conditions": "64-256 μM, 100 TCID50, 72 h", "description": "100 TCID50 virus solution (virus with 20 μg/mL trypsin at 37° C. for 30 min) was added to a 96-well culture plate of MA104 cells grown to monolayers, with 100 μL per well, and the cells were rinsed twice with PBS before addition. A normal cell control group was set, an equal volume of DMEM culture solution was added, then the 96-well plate was placed in a 5% CO2 incubator at 37° C. for incubation for 2 h, the virus solution was aspirated, different concentrations of salvianolic acid B and ribavirin were added, respectively, with 100 μL per well, and a virus control group was set and added with only a maintenance solution, with 100 μL per well. The 96-well plate was placed in a 5% CO2 incubator at 37° C. for incubation and continuous observation for 72 h and then detected by the MTT assay. A 1/10 volume of MTT solution was added to each well. After being incubated for 3-4 h in the incubator, the 96-well plate was removed, the culture solution in the well was carefully aspirated, and 150 μL of DMSO was added to each well. The plate was shaken at a low speed for 10 min on a shaker to fully dissolve the crystal, and the absorbance was detected and recorded at a wavelength of 490 nm. The drug-to-virus inhibition rates were calculated and the experiment was repeated 3 times. […]"}, "Wa strain rotavirus [3]": {"system": "Wa strain rotavirus", "assay": "Anti-RV adsorption effect in MA104 cells (drug before virus, MTT assay)", "type": "cell-based", "conditions": "16-256 μM", "description": "Salvianolic acid B solutions of different concentrations were added into a 96-well culture plate of MA104 cells grown into monolayers, wherein 4 wells were repeated for each concentration of the solution, with 100 μL per well. An equal volume of ribavirin was added to the positive control group, and only an equal volume of DMEM culture solution was added to both the normal cell control group and the virus control group, and same were placed in a 5% CO2 incubator at 37° C. for incubation for 2 h. […] 1/10 volume of MTT solution was added to each well, after being incubated for 3-4 h in the incubator, the 96-well plate was taken out, the culture solution in the well was carefully aspirated, 150 uL of DMSO was added to each well, and same was placed on a shaker and shaken at a low speed for 10 min, so that the crystal was fully dissolved; and the absorbance was detected and recorded at a wavelength of 490 nm. The drug-to-virus inhibition rates were calculated and the experiment was repeated 3 times. […]"}, "[4]": {"system": "RV structural protein VP6 gene expression", "assay": "Gene expression level of RV structural protein VP6 in RV infected MA104 cells (real time PCR)", "type": "cell-based, rotavirus", "description": "(1) In order to further verify whether salvianolic acid B has an inhibitory effect on RV synthesis, a drug group (MA104 cells after RV infection were treated with different concentrations of salvianolic acid B), a ribavirin group, a normal group, and an RV group were set up. The supernatant was removed and PBS rinse was performed twice. 1 mL of Trizol reagent was added to each well and allowed to stand for 5 minutes. After blowing the cells with a gun tip, they were collected in a 1.5 mL enzyme free EP tube. 200 μL of chloroform was add to the tube. After 15 seconds of vortex shock, the tube was placed at room temperature for 5 min, and centrifuged (4° C., 12000 r/min for 15 min). The centrifuged sample was divided into three layers, namely, the colorless upper layer, the white middle layer and the red lower layer. […]\nReal time quantitative PCR was performed using SYBR Green I fluorescence labeling to detect the expression levels of VP6 in the drug group, ribavirin group, normal group, and RV group, SYBR® Premix Pro Taq HS qPCR Kit II reagent kit was adopted, and GAPDH was selected as an internal reference. In the experiment, a real-time fluorescent quantitative PCR amplification reaction system was prepared according to the following table with a dedicated Real-time PCR plate of Axygen, and the reaction solution was prepared on ice (the total reaction was is 10 μL)."}, "MA104 cells": {"system": "MA104 cells", "assay": "Toxicity of salvianolic acid B on MA104 cells (MTT assay)", "type": "cell-based, Rhesus monkey", "conditions": "72 h; for Toxicity to MA104 cells: concentration range 0-256 μM", "description": "When the MA104 cells grew to monolayers, the cells were digested, centrifuged and resuspended, and the suspension was further diluted and then 10 μL was taken and counted on a blood cell counting plate, and the required cell volume was calculated. Cell plating was then performed in a 96-well plate with 100 μL of the cell suspension per well at a cell density of 8×10^4 per mL. Cells grown to monolayers were treated with different concentrations of salvianolic acid B for 72 h, and the toxicity of salvianolic acid B on MA104 cells was detected by MTT assay. 10 μL of MTT solution was added to each well, and the mixture was incubated in the incubator for 3-4 h. Then, the 96-well plate was taken out, and the culture solution in the well was carefully aspirated from the wells. 150 μL of DMSO was added to each well, and the mixture was shaken at a low speed for 10 min on a shaker to fully dissolve the crystal, and the absorbance was detected and recorded at a wavelength of 490 nm.\nThe formula for the relative cell survival rate is:\nCell survival rate={(Aexperimental group−Ablank)/(Acontrol group−Ablank)×100%}"}}, "data": [{"smiles": "O=C(/C=C/c1ccc(O)c2c1[C@@H](C(=O)O[C@H](Cc1ccc(O)c(O)c1)C(=O)O)[C@H](c1ccc(O)c(O)c1)O2)O[C@H](Cc1ccc(O)c(O)c1)C(=O)O", "note": "[salvianolic acid B, Salvianolic acid B]", "values": [{"measurement": "Direct inhibitory effect on RV (conclusion)", "setting": "Wa strain rotavirus [1]; 16-256 μM", "value": "no direct inhibitory effect"}, {"measurement": "inhibition at 16 µM", "setting": "Wa strain rotavirus [1]; Rotavirus, MA104, 16 μM (first of five values over 16-256 μM), 50TCID50, 72 h, read-out: Inhibitory rate directly inhibiting RV", "value": 14.2, "unit": "%"}, {"measurement": "inhibition at 32 µM", "setting": "Wa strain rotavirus [1]; Rotavirus, MA104, 32 μM (second of five values over 16-256 μM), 50TCID50, 72 h, read-out: Inhibitory rate directly inhibiting RV", "value": 15.2, "unit": "%"}, {"measurement": "inhibition at 64 µM", "setting": "Wa strain rotavirus [1]; Rotavirus, MA104, 64 μM (third of five values over 16-256 μM), 50TCID50, 72 h, read-out: Inhibitory rate directly inhibiting RV", "value": 16.5, "unit": "%"}, {"measurement": "inhibition at 128 µM", "setting": "Wa strain rotavirus [1]; Rotavirus, MA104, 128 μM (fourth of five values over 16-256 μM), 50TCID50, 72 h, read-out: Inhibitory rate directly inhibiting RV", "value": 15.8, "unit": "%"}, {"measurement": "inhibition at 256 µM", "setting": "Wa strain rotavirus [1]; Rotavirus, MA104, 256 μM (fifth of five values over 16-256 μM), 50TCID50, 72 h, read-out: Inhibitory rate directly inhibiting RV", "value": 12.7, "unit": "%"}, {"measurement": "Virus inhibition rate (anti-RV biosynthesis)", "setting": "Wa strain rotavirus [2]", "value": "higher than 50%"}, {"measurement": "Anti-RV adsorption effect (conclusion)", "setting": "Wa strain rotavirus [3]", "value": "no significant anti-RV adsorption effect"}, {"measurement": "Virus inhibition rate (anti-RV adsorption)", "setting": "Wa strain rotavirus [3]; 100TCID50, 72 h", "value": "below 50%"}, {"measurement": "Expression level of VP6 compared with the RV group", "setting": "[4]; 64, 128 and 256 μM, dose-response correlation", "value": "significantly reduced"}, {"measurement": "Cell survival rate", "setting": "MA104 cells; 512 μM, MA104 cells", "value": "below 95%"}, {"measurement": "Toxicity to MA104 cells", "setting": "MA104 cells", "value": "no obvious toxicity"}, {"measurement": "Toxicity to MA104 cells", "setting": "MA104 cells; listed as Salvianolic acid B", "value": "no drug toxicity"}]}, {"smiles": "NC(=O)c1ncn([C@@H]2O[C@H](CO)[C@@H](O)[C@H]2O)n1", "note": "[ribavirin, reference compound]", "values": [{"measurement": "Gene expression of VP6 compared to the RV group", "setting": "[4]; ribavirin group", "value": "significantly reduced"}]}]}
